Test results from patent US11986647B2, “Treating autoinflammatory and mitochondrial diseases using an alternating electric field” (Novocure GmbH, priority 2018, dated 2024).
Where “and” joins values, the source holds several entries; their conditions need not be identical. Equal entries are not always repeated.

Tests used:
[1] = tested on: UW228-3 cells; conditions: human, 72 h
Method: (§1) Cells were treated with TMZ (Sigma-Aldrich), Paclitaxel (Sigma-Aldrich) and Mebendazole (Sigma-Aldrich) as a monotherapy or in combination with TTFields. Each of the drugs were administered at their IC50 (high dose) or 10% IC50 (low dose), with the IC50s being determined through drug-response curves.
(§2) TTFields were applied using the Inovitro™ system (Novocure, Haifa). The system consists of two pairs of perpendicular transducer arrays on the outer walls of a ceramic Petri dish. A sinusoidal waveform generator was attached to the transducer arrays to produce alternating electric fields at frequencies between 100-400 kHz and 1.75V/cm intensity. The electric fields alternated orientation of 90° every second. The temperature was measured to be 37° C. inside the dishes by 2 thermistors attached to the ceramic walls.
(§3) PrestoBlue™ was added to each sample at a time-point at a 1:10 dilution. Samples were incubated at 37° C. for 30 minutes. 100 μ1 (triplicate) of the PrestoBlue solution was transferred to a black-bottomed 96-well plate and fluorescence was analyzed via UV-Vis Spectroscopy at excitation/emission wavelengths at 560/590 nm with the FLUOstar Omega (BMG Labtech).

[2] = tested on: BXD-1425EPN cells; conditions: human, 72 h
Method: as §1, §2, §3

[3] = tested on: brain tumor cell lines; test: IC50 determination through drug-response curves; assay type: cell-based; conditions: range across the brain tumor cell lines
Method: as §1, §3

[4] = tested on: SF188 cells; conditions: human, 72 h
Method: as §1, §2, §3

| Compound | reduction of cell viability [1] [%] | reduction of cell viability [2] [%] | IC50 [3] | reduction of cell viability [4] [%] |
| --- | --- | --- | --- | --- |
| COC(=O)Nc1nc2ccc(C(=O)c3ccccc3)cc2[nH]1 [Mebendazole] | 28 | 30 | 30 to 1200 nM and 20 to 1200 nM | 39 |
| CC(=O)O[C@H]1C(=O)[C@@]2(C)[C@H]([C@H](OC(=O)c3ccccc3)[C@]3(O)C[C@H](OC(=O)[C@H](O)[C@@H](NC(=O)c4ccccc4)c4ccccc4)C(C)=C1C3(C)C)[C@]1(OC(C)=O)CO[C@@H]1C[C@@H]2O [Paclitaxel] | 32 | 23 | 0.36 to 4.6 nM and 0.4 to 4.6 nM | 30 |
